Where two headings read alike, the source gives them in different places.
What was measured:
[1] = target: PCNA (Homo sapiens) (UniProt P12004); experiment: SPR; details: cited from earlier work
[2] = target: PCNA (Homo sapiens) (UniProt P12004); experiment: ITC; details: cited from earlier work
[3] = test system: pol η–PCNA holoenzyme; experiment: TLS by pol η on cis-Pt template in the presence of RF-C; assay type: biochemical, human; details: 50 µM dNTPs, 0.5 mM ATP, 150 nM ScRF-C, 400 nM pol η, 400 nM p15, 50 nM PCNA
Description: Recombinant ScRF-C was obtained as a kind gift from the laboratory of Alessandro Costa (Francis Crick Institute), and was prepared following the procedure described in ([34]).
(§1) All reactions were performed in a 10 μl final volume using the following conditions: 40 mM Tris pH 8, 1 mM dithiotreitol (DTT), 0.25 mg/ml bovine serum albumin (BSA), 10 mM Mg^2+ (unless otherwise stated in the figures or figure legends). Reactions were incubated at 37°C for 15 min, unless otherwise stated. Reaction mixtures were stopped by addition of standard denaturing gel loading buffer (95% formamide, […], xylene cyanol and bromophenol blue), heated at 95°C for 5 min and loaded on a 7-M urea 12% polyacrylamide (PA) gel.
18/24mer primer-template substrate bearing a cis-Pt adduct at the two guanines at positions +1
and +2 of the template strand, in the presence of RF-C and in the absence (lanes 10-13) or in the
Reactant concentrations were: 50
(1 picture or pasted object on this page, not shown here)

[4] = target: DNA; details: cited from earlier work
Description: (§2) Thus, each dNTP insertion step is carried out by a combination of pol η alone and pol η holoenzyme. However, if ...

[5] = test system: pol η; experiment: DNA synthesis by pol η without PCNA, undamaged control template; assay type: biochemical, human; details: pol η 70 nM, p15 400 nM, no PCNA, control template 10 nM
Description: pJM879 ([33]), expressing N-terminal His-tagged human pol η, was a kind gift from R. Woodgate (NIH, USA). Human recombinant pol η was expressed and purified with a modified protocol: BL21 DE3 competent E. coli cells were transformed with pJM879. Plates containing […] kanamycin were used to identify kanamycin-resistant colonies that were picked and grown overnight at 37°C. DNA purified from bacterial cultures using NucleoSpin® Plasmid (NoLid) kit ([…]-NAGEL, Düren, Germany) was digested to confirm the presence of the gene expressing pol η. Transformed E. coli cells were used to inoculate a 50 ml starter culture. After overnight growth at 37°C, 12 ml of the starter culture were put into 1 l of LB medium (containing […] kanamycin). After 6 h growth at 37°C, cells were harvested by centrifugation and pellet frozen at –80°C. […]

[6] = test system: pol η–PCNA holoenzyme; experiment: TLS time course of pol η on cisPt(GG) template; assay type: biochemical, human; details: cisPt(GG) template 10 nM, pol η 40 nM; p15 with equimolar PCNA (p15), 10-fold excess PCNA (PCNA), or pol η alone; pH 8, 37°C
Description: (§3) The 24-mer template oligonucleotide containing the cis-PtGG adduct was a kind gift from S.J. Sturla (ETH, Zürich) and was prepared and purified as described previously (Nilforoushan, 2015). All other DNA oligonucleotides, all HPLC purified, were synthesized by Biomers.net (Germany). The 18mer primer oligonucleotide was 5′-labeled with carboxyfluorescin (FAM) group. The labeled primer was mixed to the complementary template oligonucleotide at 1:1 (M/M) ratio in the presence of 150 mM Hepes–KOH pH 7.4, 500 mM KCl, 10 mM MgCl2, 250 mM NH4Ac, heated at 95°C for 5 min and then slowly cooled at room temperature.
pJM879 ([33]), expressing N-terminal His-tagged human pol η, was a kind gift from R. Woodgate (NIH, USA). Human recombinant pol η was expressed and purified with a modified protocol: BL21 DE3 competent E. coli cells were transformed with pJM879. Plates containing […] kanamycin were used to identify kanamycin-resistant colonies that were picked and grown overnight at 37°C. […] Transformed E. coli cells were used to inoculate a 50 ml starter culture. After overnight growth at 37°C, 12 ml of the starter culture were put into 1 l of LB medium (containing […] kanamycin). After 6 h growth at 37°C, cells were harvested by centrifugation and pellet frozen at –80°C. […]

[7] = test system: pol η–PCNA holoenzyme; experiment: DNA synthesis by pol η on undamaged template; assay type: biochemical, human
Description: as §3
pJM879 ([33]), expressing N-terminal His-tagged human pol η, was a kind gift from R. Woodgate (NIH, USA). Human recombinant pol η was expressed and purified with a modified protocol: BL21 DE3 competent E. coli cells were transformed with pJM879. Plates containing […] kanamycin were used to identify kanamycin-resistant colonies that were picked and grown overnight at 37°C. […] Transformed E. coli cells were used to inoculate a 50 ml starter culture. After overnight growth at 37°C, 12 ml of the starter culture were put into 1 l of LB medium (containing […] kanamycin). After 6 h growth at 37°C, cells were harvested by centrifugation and pellet frozen at –80°C. The pellet was resuspended in 40ml of lysis buffer (50mM Tris–HCl pH 7.5, 0.3 M NaCl, 20 mM imidazole, 10% glycerol, 10 mM b-mercaptoethanol [BME], 1× lysozime (Eurobio, Courtaboeuf, France), 1× ethylenediaminetetraacetic acid [EDTA]-free protease inhibitor ([…]™ Protease Inhibitor Cocktail Tablets, Sigma-Aldrich), 1 mM phenylmethane sulfonyl fluoride [PMSF] and lysed through sonication. After ultracentrifugation at 98 000g at 4°C for 1.5 h, the supernatant was loaded onto a 1-ml Ni-NTA column (HisTrap™ HP, GE Healthcare). Column washing was performed with 3 ml of W1 buffer ([…] pH 7.5, 1 M NaCl, 20 mM imidazole, 10% glycerol, 10 mM BME) followed by 3 ml of W2 buffer (10 mM Na-phosphate pH 7.7, 0.3 M NaCl, 20 mM imidazole, 10% glycerol, 10 mM BME). Elution of target protein was obtained using buffer H (10 mM Na-phosphate pH 7.7, 0.3 M NaCl, 200 mM imidazole, 10% glycerol, 10 mM BME). The pol η positive fractions (0.5 ml each) were pooled and overnight dialyzed with buffer M (20 mM Na-phosphate pH 7.3, 0.1 M NaCl, 10% glycerol, 10 mM BME), in dialysis cassette (Slide-A-Lyzer™ Dialysis Cassettes, 3.5K MWCO, Thermo Scientific). Pool was then loaded onto a 1-ml cation exchanger column (HiTrap SP, Pharmacia Biotech). Buffer N (20 mM Na-phosphate pH 7.3, 0.5 M NaCl, 10% glycerol, 10 mM BME) was used to elute pol η with a linear gradient. The pol ηpositive fractions (0.5 ml each) were aliquoted and stored at –80°C in 20% final glycerol.
as §1
Figure 4. […] Reactants at the indicated concentrations were incubated at 37°C for 30 s and the reaction was stopped by addition of standard denaturing gel loading buffer.

[8] = target: PCNA; details: read-out: Kd pol η–PCNA (SPR); surface plasmon resonance at 25°C; cited from earlier work
Description: as §2

Chain of UniProt P12004 (P12004 whole entry): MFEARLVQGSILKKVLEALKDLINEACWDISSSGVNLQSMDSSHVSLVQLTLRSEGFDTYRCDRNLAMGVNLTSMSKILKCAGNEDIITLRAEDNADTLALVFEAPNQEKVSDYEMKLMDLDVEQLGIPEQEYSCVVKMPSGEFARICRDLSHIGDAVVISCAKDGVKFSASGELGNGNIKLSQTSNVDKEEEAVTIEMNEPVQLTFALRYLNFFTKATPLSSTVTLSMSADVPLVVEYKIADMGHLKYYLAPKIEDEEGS

In the case of pol η (from UniProt Q9Y253), the Kd [1] is given as 400 nM.

For p15PAF (from UniProt Q15004), the Kd [2] is listed as 1100 nM.

For “p15: PCNA–associated factor, oncogenic 11 kDa intrinsically disordered protein”, the “effect on TLS in the presence of RF-C” value ([3]; 40 nM cis-Pt 18/24mer) is given as “delays TLS by pol η–PCNA across a cis-Pt lesion even in the presence of RF-C”, the “accumulated products in the presence of RF-C” value ([3]; p15 in combination with PCNA) is given as “accumulation of +1 and +2 products” and the Kd ([4]; read-out: affinity of p15 for DNA) is given as 5000 nM. The “effect of p15 alone on pol η activity” value [5] was “does not affect the activity of the polymerase”, the “effect on lesion bypass / nucleotide incorporation” value [6] was “reduced nucleotide incorporation at +2 and +3 positions” and the “effect on nucleotide incorporation at initial time point” value ([7]; undamaged template 10 nM, with PCNA and p15 equimolar, lane 2, 37°C, pH 8) was “reduced nucleotide incorporation at position +2”. For the same molecule, the “effect on synthesis of full-length product” value ([7]; undamaged template 10 nM, with PCNA and p15 equimolar, lanes 3–5, 37°C, pH 8) was “slowed down the synthesis of the full-length product”, the “comparison of pol η inhibition by p15 and p15^41–72 in conjunction with PCNA” value ([7]; undamaged template, 37°C for 30 s) was “able to reduce pol η synthesis at comparable levels” and the “effect on DNA synthesis in combination with PCNA” value ([7]; undamaged template, 37°C for 30 s, with respect to pol η and PCNA alone, synthesis stopped at +1 and +2) was “reduction of DNA synthesis”.

B1: pol η: human recombinant translesion synthesis polymerase η, N-terminal His-tagged (protein, UniProt Q9Y253 1-713, looked up)
DNA polymerase eta: MATGQDRVVALVDMDCFFVQVEQRQNPHLRNKPCAVVQYKSWKGGGIIAVSYEARAFGVTRSMWADDAKKLCPDLLLAQVRESRGKANLTKYREASVEVMEIMSRFAVIERASIDEAYVDLTSAVQERLQKLQGQPISADLLPSTYIEGLPQGPTTAEETVQKEGMRKQGLFQWLDSLQIDNLTSPDLQLTVGAVIVEEMRAAIERETGFQCSAGISHNKVLAKLACGLNKPNRQTLVSHGSVPQLFSQMPIRKIRSLGGKLGASVIEILGIEYMGELTQFTESQLQSHFGEKNGSWLYAMCRGIEHDPVKPRQLPKTIGCSKNFPGKTALATREQVQWWLLQLAQELEERLTKDRNDNDRVATQLVVSIRVQGDKRLSSLRRCCALTRYDAHKMSHDAFTVIKNCNTSGIQTEWSPPLTMLFLCATKFSASAPSSSTDITSFLSSDPSSLPKVPVTSSEAKTQGSGPAVTATKKATTSLESFFQKAAERQKVKEASLSSLTAPTQAPMSNSPSKPSLPFQTSQSTGTEPFFKQKSLLLKQKQLNNSSVSSPQQNPWSNCKALPNSLPTEYPGCVPVCEGVSKLEESSKATPAEMDLAHNSQSMHASSASKSVLEVTQKATPNPSLLAAEDQVPCEKCGSLVPVWDMPEHMDYHFALELQKSFLQPHSSNPQVVSAVSHQGKRNPKSPLACTNKRPRPEGMQTLESFFKPLTH
modifications: N-terminal His tag
notes: human recombinant translesion synthesis polymerase η, N-terminal His-tagged
In the case of B1, the Kd ([4]; read-out: affinity of pol η for DNA) is given as 30 nM, the Kd [8] is given as 400 nM and the “effect on lesion bypass / nucleotide incorporation” value [6] is given as “able to complete the bypass”. For the same molecule, the processivity ([7]; undamaged template 10 nM, pol η alone or with PCNA, 37°C, pH 8) was “equal processivity”.
